The values below come from patent EP2718307B1, “BETA-HAIRPIN PEPTIDOMIMETICS AS CXC4 ANTAGONISTS” (Polyphor AG, priority 2011, dated 2012).

Data set [1] in a line: Plasma stability, mouse plasma. In kind it is in vitro ADME. The method, then:
The stability of the peptides in human and mouse plasma was determined by applying the following method: 346.5 µL/deep well of freshly thawed human plasma (Basler Blutspende-dienst) and mouse plasma (Harlan Sera-Lab, UK), respectively, were spiked with 3.5 µL/well of compound dissolved in DMSO/H2O (90/10 [v/v], 1 mM, triplicate) and incubated at 37° C. At t = 0, 15, 30, 60, 120, 240 and 1440 min aliquots of 50 µL were transferred to filtration plate wells containing 150 µL/well of 2% formic acid in acetonitrile. Following shaking for 2 min the occurred suspensions were filtrated by vacuum. 100 µL of each filtrate were transferred to a propylene microtiter plate and dried under N2. The residual solids were reconstituted by adding 100 µL/well of water/acetonitrile, 95/5 (v/v) + 0.2% formic acid and analyzed by LC/MS as follows: Column: Waters, XBridge C18, mobile phases: (A) water + 0.1% formic acid and (B) acetonitrile/water, 95/5 (v/v) + 0.1% formic acid, gradient: 5%-100% (B) in 1.8 minutes, electrospray ionization, MRM detection (triple quadrupole). The peak areas were determined and triplicate values are averaged. The stability is expressed in percent of the initial value at t = 0. (tx/t0 x 100). By using the TREND function of EXCEL (Microsoft Office 2003) T1/2 were determined.

Data set [2] can be described thus: Pharmacokinetic study (PK) after intravenous administration. The data set is classed as in vivo, male CD-1 mice. The following applies: 1 mg/kg; for AUC0-∞ / CL / Cmax / Half-life / Vdis: mouse, in vivo. The method, then: For the compounds of Ex. 1, Ex.2, Ex. 3, Ex. 4, Ex. 5 and Ex. 6 pharmacokinetic studies after intravenous (i.v.) administration were performed.
30 grams (± 20%) male CD-1 mice obtained from Charles River Laboratories Deutschland GmbH were used. The vehicle, phosphate buffered saline, was added to give a final concentration of 0.5 mg/mL of the compound. The volume was 2 mL/kg and the compound was injected to give a final intravenous dose of 1 mg/kg. Approximately 300-400 µL of blood was removed under light isoflurane anesthesia by cardiac puncture at predetermined time intervals (5, 15, 30 min and 1, 2, 3, 4, hours) and added to heparinized tubes. Plasma was removed from pelleted cells upon centrifugation and frozen at -80 °C prior to HPLC-MS analysis.
Aliquots of 50 µL each of mouse plasma of untreated aminals ("blank" mouse plasma) were spiked with known amounts of the compounds Ex. 1, Ex.2, Ex. 3, Ex. 4, Ex. 5 and Ex. 6 in order to obtain 10 plasma calibration samples for each compound in the range 1 - 4000 ng/mL. Aliquots of 50 µL each of mouse plasma from treated animals were used as plasma study samples.
All plasma samples were spiked with an appropriate internal standard and extracted with acetonitrile containing 2% formic acid. Supernatants were evaporated to dryness under nitrogen and the remaining solids reconstituted in water/acetonitrile 95/5 (v/v) + 0.2% formic acid.
Extracts were then analyzed by reverse-phase chromatography (Acquity BEH C18, 100 x 2.1 mm, 1.7 µm column, Waters for Ex. 1 and Acquity HSS C18 SB, 100 x 2.1 mm, 1.8 µm column, Waters for Ex. 2, Ex. 3, Ex. 4, Ex. 5 and Ex. 6), using the following conditions: Ex. 1, mobile phases: (A) water/acetonitrile 95/5 (v/v) + 0.1% formic acid, (B) acetonitrile/water 95/5 (v/v) + 0.1% formic acid, gradient: 1% (B) 0-0.1 min, 15% (B) 0.1-2.5 min for Ex. 1 and 1% (B) 0-0.1 min, 40% (B) 0.1-2.5 min for Ex. 2, Ex. 3, Ex. 4, Ex. 5 and Ex. 6. The detection and quantification was performed by mass spectrometry, with electrospray interface in positive mode and selective fragmentation of analytes (4000 Q Trap mass spectrometer, AB Sciex).
PK parameters were calculated by WinNonLin™ software version 5.3 (Pharsight- A Certara™ Company, Moutain View, CA 94041 USA) using a one-compartmental model analysis. PK parameters were determined by least-square fitting of the model to the experimental data.

For the next data set, the target named is T1, CXCR4 receptor (Homo sapiens, UniProt P61073).
T1 construct: Namalwa cells (CXCR4 natively expressing non-adherent cells, ATCC CRL-1432); host or cells: Namalwa cells
T1 sequence (P61073 whole entry): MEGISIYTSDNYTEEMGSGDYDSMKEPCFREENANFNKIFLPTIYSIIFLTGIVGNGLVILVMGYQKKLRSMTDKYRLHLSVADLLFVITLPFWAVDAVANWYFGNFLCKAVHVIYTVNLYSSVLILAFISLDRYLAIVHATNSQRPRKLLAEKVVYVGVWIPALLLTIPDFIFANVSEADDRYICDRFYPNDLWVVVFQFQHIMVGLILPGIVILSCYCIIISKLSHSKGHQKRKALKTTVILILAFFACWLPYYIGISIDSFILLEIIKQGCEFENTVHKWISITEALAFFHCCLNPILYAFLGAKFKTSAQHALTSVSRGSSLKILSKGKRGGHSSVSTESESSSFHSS
Description: Chemotactic assay (cell migration assay): response of Namalwa cells to an SDF-1 gradient. In kind it is cell-based. As for the experimental part:
Namalwa cells (CXCR4 natively expressing non-adherent cells, ATCC CRL-1432) were cultured in RPMI1640 plus 10% FBS, and pen/strept. HELA cells were maintained in RPMI1640 plus 10% FBS, pen/strept and 2 mM L-glutamine. Cos-7 cells were grown in DMEM medium with […] glucose supplemented with 10% FCS, pen/strept and 2 mM L-glutamine. All cell lines were grown at 37 °C at 5% CO2. Cell media, media supplements, PBS-buffer, HEPES, antibiotic/antimycotic, pen/strept, non essential amino acid, L-glutamine, β-mercaptoethanol and sera were purchased from Gibco (Pailsey, UK). All fine chemicals were supplied by Merck (Darmstadt, Germany).
The chemotactic response of Namalwa cells (ATCC CRL-1432) to a gradient of stromal cell-derived factor 1α (SDF-1) was measured using a modified Boyden chamber chemotaxis system (ChemoTx; Neuroprobe). In this system, the upper chamber of each well is separated from the lower chamber containing the chemoattractant SDF-1 by a polycarbonate membrane (5µm pore size). A circular area of that membrane in the region that covers each lower well is enclosed by a hydrophobic mask to retain the cell suspension within this area. The system was prepared by loading the bottom wells with aliquots of […] chemotaxis medium (RPMI 1640 without Phenol red + 0.5% BSA) comprising either appropriate serial dilutions of peptides or no peptide at all in combination with SDF-1 (0.9 nM) or without the chemoattractant. The membrane was placed over the bottom wells, and aliquots of 50 µL of a suspension of Namalwa cells (3.6 x 10^6 cells/mL) in chemotaxis medium, premixed with chemotaxis medium comprising either appropriate serial dilutions of peptides or no peptide at all, was delivered onto each of the hydrophobically limited regions of the upper surface of the membrane. The cells were allowed to migrate into the bottom chamber for 5 h at 37 °C in 5% CO2. After this period, the membrane was removed and its topside was carefully wiped and washed with PBS to eliminate non-migrated cells. Migrated cells were transferred using a "funnel" adaptor to a receiving 96-well plate and the cell number was determined by using the CyQuant™ NF cell proliferation assay (Invitrogen) based on the measurement of cellular DNA content via fluorescent dye binding. Following the manufacturer's directions, 50 µL of CyQuant™ dye reagent/HBSS buffer (1/500 [v/v]) were added to each well of the above mentioned receiving 96-well plate. After incubation for 0.5 h at room temperature the plate was sealed and the fluorescence intensity of each sample was measured by using a Wallac 1420 VICTOR^2™ plate reader (PerkinElmer) with excitation at 485 nm and emission detection at 535 nm. Finally, the data were normalized by using the controls and IC50-values were determined using GraphPad Prism™ (GraphPad) by fitting a logarithmic curve to the averaged datapoints.

The mark [3] stands for this setting: Namalwa cells, SDF-1 0.9 nM, migration 5 h, read-out: IC50 [nM] ± SD, CXCR4 receptor.

Like-named read-outs stand apart in the source and are kept apart here. Bridge positions count the residues as written; N and C are the ends. Square brackets hold non-standard residues; d marks the D form. Peptide text beside a SMILES is read from it. Lys(iPr) = CC(C)NCCCC[C@H](N)C(=O)O; Orn(iPr) = CC(C)NCCC[C@H](N)C(=O)O

One may read the Cmax as the highest concentration seen after dosing. For orientation: IC50 means the concentration needed to halve the response being measured. With `COc1ccc(C[C@H]2NC(=O)[C@H](C)NC(=O)[C@H](CO)NC(=O)[C@@H]3CSSC[C@H](NC(=O)[C@H](Cc4ccc(O)cc4)NC(=O)[C@H](CCCNC(=N)N)NC(=O)[C@H](CCCNC(C)C)NC2=O)C(=O)N[C@@H](Cc2ccc(O)cc2)C(=O)N[C@@H](CCC(N)=O)C(=O)N[C@@H](CCCCNC(C)C)C(=O)N2CCC[C@@H]2C(=O)N2CCC[C@H]2C(=O)N[C@@H](Cc2ccc(O)cc2)C(=O)N[C@@H](Cc2c[nH]cn2)C(=O)N[C@@H](C)C(=O)N3)cc1` [Ex. 4, cyclo(-Tyr^1-His^2-Ala^3-Cys^4-Ser^5-Ala^6-^DTyr(Me)^7-Orn(iPr)^8-Arg^9-Tyr^10-Cys^11-Tyr^12-Gln^13-Lys(iPr)^14-^DPro^15-Pro^16-), disulfide bond between Cys^4 and Cys^11] (cyclo(YHACSA[dY](Me)[Orn(iPr)]RYCYQ[Lys(iPr)][dP]P); disulfide 4-11), in data set [1], the “Plasma stability mouse pl. T1/2” value amounted to 24 h and the “Plasma stability mouse pl. cpd left at 1440 min” value is 60%. Besides, in data set [2] (iv), the “AUC0-∞” value worked out at 1345 ng·h/mL, the CL was found to be 12.4 mL/min/kg, the Cmax is reported as 1615 ng/mL and the Half-life is reported as 0.6 h. The Vdis in data set [2] (iv) is 0.607 L/kg. Besides, on CXCR4 receptor (setting [3]), the IC50 is 0.18 ± 0.09 nM.
With `COc1ccc(C[C@@H]2NC(=O)[C@H](Cc3c[nH]cn3)NC(=O)[C@H](Cc3ccc(O)cc3)NC(=O)[C@@H]3CCCN3C(=O)[C@H]3CCCN3C(=O)[C@H](CCCCNC(C)C)NC(=O)[C@H](CCC(N)=O)NC(=O)[C@H](Cc3ccc(O)cc3)NC(=O)[C@@H]3CSSC[C@H](NC2=O)C(=O)N[C@@H](CO)C(=O)N[C@@H](C)C(=O)N[C@H](Cc2ccc(OC)cc2)C(=O)N[C@@H](CCCNC(C)C)C(=O)N[C@@H](CCCNC(=N)N)C(=O)N[C@@H](Cc2ccc(O)cc2)C(=O)N3)cc1` [Ex. 6, cyclo(-Tyr^1-His^2-Tyr(Me)^3-Cys^4-Ser^5-Ala^6-^DTyr(Me)^7-Orn(iPr)^8-Arg^9-Tyr^10-Cys^11-Tyr^12-Gln^13-Lys(iPr)^14-^DPro^15-Pro^16-), disulfide bond between Cys^4 and Cys^11] (cyclo(YHY(Me)CSA[dY](Me)[Orn(iPr)]RYCYQ[Lys(iPr)][dP]P); disulfide 4-11), the “Plasma stability mouse pl. T1/2” value in data set [1] (mouse plasma, 37° C, last time point 1440 min) amounted to 24 h. For the same compound, in data set [2] (male, CD-1, in vivo, iv, mouse plasma, i.v. route, Time 4 h, read-out: Calc. Conc.), the level at 4 h was 7 ng/mL. Moreover, the IC50 on CXCR4 receptor came out at 0.09 ± 0.09 nM.
With `CC(C)NCCCC[C@@H]1NC(=O)[C@H](CCC(N)=O)NC(=O)[C@H](Cc2ccc(O)cc2)NC(=O)[C@@H]2CSSC[C@H](NC(=O)[C@H](Cc3ccc(O)cc3)NC(=O)[C@H](Cc3c[nH]cn3)NC(=O)[C@H](Cc3ccc(O)cc3)NC(=O)[C@@H]3CCCN3C(=O)[C@H]3CCCN3C1=O)C(=O)N[C@@H](CO)C(=O)N[C@@H](C)C(=O)N1CCC[C@@H]1C(=O)N[C@@H](CCCNC(C)C)C(=O)N[C@@H](CCCNC(=N)N)C(=O)N[C@@H](Cc1ccc(O)cc1)C(=O)N2` [Ex. 1, cyclo(-Tyr^1-His^2-Tyr^3-Cys^4-Ser^5-Ala^6-^DPro^7-Orn(iPr)^8-Arg^9-Tyr^10-Cys^11-Tyr^12-Gln^13-Lys(iPr)^14-^DPro^15-Pro^16-), disulfide bond between Cys^4 and Cys^11] (cyclo(YHYCSA[dP][Orn(iPr)]RYCYQ[Lys(iPr)][dP]P); disulfide 4-11), in data set [1], the “Plasma stability mouse pl. T1/2” value came out at 24 h and the “Plasma stability mouse pl. cpd left at 1440 min” value is given as 100%. Also, the “Calc. Conc.” value in data set [2] (mouse plasma, i.v. route, Time 4 h) was 7 ng/mL. In addition, in data set [2] (iv), the “AUC0-∞” value was 1151 ng·h/mL, the CL is 14.5 mL/min/kg, the Cmax stood at 1829 ng/mL and the Half-life was 0.4 h. The compound also gave a Vdis in data set [2] (iv) of 0.547 L/kg. Also, the IC50 on CXCR4 receptor (setting [3]) was 0.42 ± 0.1 nM.
On to `COc1ccc(C[C@@H]2NC(=O)[C@H](Cc3c[nH]cn3)NC(=O)[C@H](Cc3ccc(O)cc3)NC(=O)[C@@H]3CCCN3C(=O)[C@H]3CCCN3C(=O)[C@H](CCCCNC(C)C)NC(=O)[C@H](CCC(N)=O)NC(=O)[C@H](Cc3ccc(O)cc3)NC(=O)[C@@H]3CSSC[C@H](NC2=O)C(=O)N[C@@H](CO)C(=O)N[C@@H](C)C(=O)N2CCC[C@@H]2C(=O)N[C@@H](CCCNC(C)C)C(=O)N[C@@H](CCCNC(=N)N)C(=O)N[C@@H](Cc2ccc(O)cc2)C(=O)N3)cc1` [Ex. 2, cyclo(-Tyr^1-His^2-Tyr(Me)^3-Cys^4-Ser^5-Ala^6-^DPro^7-Orn(iPr)^8-Arg^9-Tyr^10-Cys^11-Tyr^12-Gln^13-Lys(iPr)^14-^DPro^15-Pro^16-), disulfide bond between Cys^4 and Cys^11] (cyclo(YHY(Me)CSA[dP][Orn(iPr)]RYCYQ[Lys(iPr)][dP]P); disulfide 4-11), for which, in data set [1], the “Plasma stability mouse pl. T1/2” value came to 24 h and the “Plasma stability mouse pl. cpd left at 1440 min” value is 100%. In data set [2] (iv), the “AUC0-∞” value is 1518 ng·h/mL, the CL worked out at 11 mL/min/kg, the Cmax is recorded as 1575 ng/mL and the Half-life was 0.7 h. Further, the Vdis in data set [2] (iv) was found to be 0.635 L/kg. Further, the IC50 at CXCR4 receptor (setting [3]) came to 0.69 ± 0.43 nM.
